Reference: patent publication US20100298141A1, “SUBSTITUTED PYRIDINE N-OXIDE HERBICIDES” (E. I. DU PONT DE NEMOURS AND COMPANY, priority 2007, published 2010)

How the values were obtained:
purple nutsedge = experiment: Test F preemergence test; assay type: in vivo, Cyperus rotundus; conditions: scale 0 to 100
From the text: (§1) Seeds of plant species selected from bermudagrass (Cynodon dactylon), Surinam grass (Brachiaria decumbens), large crabgrass (Digitaria sanguinalis), green foxtail (Setaria viridis), goosegrass (Eleusine indica), johnsongrass (Sorghum halepense), kochia (Kochia scoparia), pitted morningglory (Ipomoea lacunosa), purple nutsedge (Cyperus rotundus), common ragweed (Ambrosia elation), mustard (Brassica nigra), guineagrass (Panicum maximum), […] (Paspalum dilatatum), barnyardgrass (Echinochloa crus-galli), southern sandbur (Cenchrus echinatus), common sowthistle (Sonchus oleraceous), prickly […] spinosa), Italian ryegrass (Lolium multiflorum), common purslane (Portulaca oleracea), broadleaf signalgrass (Brachiaria platyphylla), common groundsel (Senecio vulgaris), common chickweed (Stellaria media), Virginia dayflower (Commelina virginica), annual bluegrass (Poa annua), naked crabgrass (Digitaria nuda), […] cochinchinensis), quackgrass (Elytrigia repens), Canada horseweed (Conyza canadensis), field bindweed (Convolvulus arvensis), […] (Bidens bipinnata), common mallow (Malva sylvestris), Russian thistle (Salsola kali), and sugarcane (Saccharum officinarum) were planted and treated preemergence with test chemicals formulated in a non-phytotoxic solvent mixture which included a surfactant. At a different time, sugarcane was treated with postemergence applications of some of the test chemicals formulated in the same manner. Plants were approximately 3- to 4-leaf stage for the postemergence treatments. Treated plants and controls were maintained in a greenhouse for 14 to 21 days, after which time all species were compared to controls and visually evaluated. […] A dash (-) response means no test result.

wheat = experiment: Test C pre-/postemergence test; assay type: in vivo, Triticum aestivum; conditions: for Plant response rating, Wheat: 31 g ai/ha, scale 0 to 100 (0 no effect, 100 complete control)
From the text: (§2) Seeds of plant species selected from blackgrass (Alopecurus myosuroides), downy brome (Bromus tectorum), green foxtail (Setaria viridis), Italian ryegrass (Lolium multiflorum), wheat (Triticum aestivum), wild oat (Avena fatua), catchweed bedstraw (Galium aparine), Russian thistle (Salsola kali), […] (Cynodon dactylon), Surinam grass (Brachiaria decumbens), cocklebur (Xanthium strumarium), corn (Zea mays), crabgrass (Digitaria sanguinalis), woolly cupgrass (Eriochloa villosa), giant foxtail (Setaria faberii), Goosegrass (Eleusin indica), johnsongrass (Sorghum halepense), kochia (Kochia scoparia), lambsquarters (Chenopodium album), morningglory (Ipomoea coccinea), eastern black nightshade (Solanum ptycanthum), yellow nutsedge (Cyperus esculentus), pigweed (Amaranthus retroflexus), common ragweed (Ambrosia elation), soybean (Glycine max), common (oilseed) sunflower (Helianthus annuus), and velvetleaf (Abutilon theophrasti) were planted and treated preemergence with test chemicals formulated in a non-phytotoxic solvent mixture which included a surfactant. At the same time, plants selected from these crop and weed species and also winter barley (Hordeum vulgare), canarygrass (Phalaris minor), and chickweed (Stellaria media) were treated with postemergence applications of some of the test chemicals formulated in the same manner. Plants ranged in height from 2 to 18 cm (1- to 4-leaf stage) for postemergence treatments. […] At time of treatment, test pots were flooded to 3 cm above the soil surface, treated by application of test compounds directly to the paddy water, and then maintained at that water depth for the duration of the test. […] A dash (-) response means no test result.

giant foxtail = experiment: Test A pre-/postemergence greenhouse test; assay type: in vivo, Setaria faberi; conditions: for Plant response rating, Foxtail, Giant: 0 to 100 scale where 0 is no effect and 100 is complete control; for Foxtail, Giant plant response rating: 0 to 100 scale
Outline: (§3)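 Each test compound, dissolved in a non-phytotoxic solvent mixture with surfactant, was sprayed directly onto seeded soil (loam/sand blend) and, at the same moment, onto seedlings carrying one to two leaves. Around ten greenhouse days later, plants were rated visually for injury relative to untreated controls.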

common ragweed = experiment: Test C pre-/postemergence test; assay type: in vivo, Ambrosia elation; conditions: for Plant response rating, Ragweed: scale 0 to 100 (0 no effect, 100 complete control)
From the text: as §2

annual bluegrass = experiment: Test F preemergence test; assay type: in vivo, Poa annua; conditions: scale 0 to 100
From the text: as §1

barnyardgrass = experiment: Test C flooded paddy test; assay type: in vivo, Echinochloa crus-galli; conditions: Flood
Outline: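 Visual injury ratings against untreated controls, taken 13 to 15 days after compound was added to paddy water standing 3 cm above the soil.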

southern sandbur = experiment: Test F preemergence test; assay type: in vivo, Cenchrus echinatus; conditions: scale 0 to 100
From the text: as §1

field bindweed = experiment: Test F preemergence test; assay type: in vivo, Convolvulus arvensis; conditions: scale 0 to 100
From the text: as §1

green foxtail = experiment: Test F preemergence test; assay type: in vivo, Setaria viridis; conditions: scale 0 to 100
From the text: as §1

velvetleaf = experiment: Test A pre-/postemergence greenhouse test; assay type: in vivo, Abutilon theophrasti; conditions: for Plant response rating, Velvetleaf: 0 to 100 scale where 0 is no effect and 100 is complete control; for Velvetleaf plant response rating: 0 to 100 scale
Outline: as §3

[1] = 62 g ai/ha, Preemergence, scale 0 to 100
[2] = 125 g ai/ha, preemergence, scale 0 (no effect) to 100 (complete control)
[3] = preemergence, 250 g ai/ha, scale 0 (no effect) to 100 (complete control)
[4] = Postemergence, 500 g ai/ha, 0 is no effect, 100 is complete control
[5] = Preemergence, 125 g ai/ha, 0 no effect, 100 complete control
[6] = 62 g ai/ha, scale 0 to 100 (0 no effect, 100 complete control)
[7] = 250 g ai/ha, scale 0 to 100, 0 no effect, 100 complete control, 13 to 15 days
[8] = 62 g ai/ha, preemergence, scale 0 (no effect) to 100 (complete control)
[9] = preemergence, 125 g ai/ha, scale 0 (no effect) to 100 (complete control)
[10] = Postemergence, 125 g ai/ha, 0 is no effect, 100 is complete control
[11] = 31 g ai/ha, scale 0 to 100 (0 no effect, 100 complete control)
[12] = 62 g ai/ha, scale 0 to 100, 0 no effect, 100 complete control, 13 to 15 days
[13] = 125 g ai/ha, scale 0 to 100, 0 no effect, 100 complete control, 13 to 15 days
[14] = 250 g ai/ha, scale 0 to 100 (0 no effect, 100 complete control)

Row | Structure (SMILES) | Wheat plant response rating (wheat; [1]) | Wheat plant response rating (wheat; [2]) | Plant response rating, Wheat (wheat; Preemergence) | Wheat plant response rating (wheat; [3]) | Plant response rating, Foxtail, Giant (giant foxtail; Postemergence, 125 g ai/ha) | Foxtail, Giant plant response rating (giant foxtail; [4]) | Foxtail, Giant plant response rating (giant foxtail; [5]) | Plant response rating, Foxtail, Giant (giant foxtail; Preemergence, 500 g ai/ha) | Ragweed plant response rating (common ragweed; [1]) | Ragweed plant response rating (common ragweed; [2]) | Plant response rating, Ragweed (common ragweed; Preemergence, 31 g ai/ha) | Ragweed plant response rating (common ragweed; [3]) | Plant response rating, Barnyardgrass (barnyardgrass; [6]) | Plant response rating, Barnyardgrass (barnyardgrass; [7]) | Plant response rating, Velvetleaf (velvetleaf; Postemergence, 125 g ai/ha) | Velvetleaf plant response rating (velvetleaf; [4]) | Velvetleaf plant response rating (velvetleaf; [5]) | Plant response rating, Velvetleaf (velvetleaf; Preemergence, 500 g ai/ha) | Foxtail, Giant plant response rating (giant foxtail; [10]) | Plant response rating, Barnyardgrass (barnyardgrass; [11]) | other results
1 | Cc1cc([S+]([O-])Cc2c(C(F)(F)F)nn(C)c2OCC(F)(F)F)[n+]([O-])cc1Cl (stereo not shown) [Compound 70] | 60 | 95 | 15 | 95 | 60 | 90 | 100 | 100 | 80 | 80 | 0 | 100 | 0 | 95 | 60 | 70 | 40 | 100 | – | – | Plant response rating, Purple Nutsedge (purple nutsedge; 16 g ai/ha, preemergence): 0; Purple Nutsedge plant response rating (purple nutsedge; 62 g ai/ha, Preemergence): 20; Purple Nutsedge plant response rating (purple nutsedge; 125 g ai/ha, preemergence): 40; Plant response rating, Purple Nutsedge (purple nutsedge; Preemergence, 31 g ai/ha): 15; Plant response rating, Bluegrass (annual bluegrass; 16 g ai/ha, preemergence): 65; Bluegrass plant response rating (annual bluegrass; 62 g ai/ha, Preemergence): 95; Bluegrass plant response rating (annual bluegrass; 125 g ai/ha, preemergence): 100; Plant response rating, Bluegrass (annual bluegrass; Preemergence, 31 g ai/ha): 75; Plant response rating, Sandbur (southern sandbur; 16 g ai/ha, preemergence): 65; Sandbur plant response rating (southern sandbur; 125 g ai/ha, preemergence): 100; Plant response rating, Sandbur (southern sandbur; Preemergence, 62 g ai/ha): 75; Plant response rating, Field Bindweed (field bindweed; 16 g ai/ha, preemergence): 40; Field Bindweed plant response rating (field bindweed; 62 g ai/ha, Preemergence): 40; Field Bindweed plant response rating (field bindweed; 125 g ai/ha, preemergence): 40; Plant response rating, Field Bindweed (field bindweed; Preemergence, 31 g ai/ha): 40; Foxtail, Green plant response rating (green foxtail; 62 g ai/ha, Preemergence): 75; Foxtail, Green plant response rating (green foxtail; 125 g ai/ha, preemergence): 90; Plant response rating, Foxtail, Green (green foxtail; Preemergence, 31 g ai/ha): 65
2 | Cn1nc(C(F)(F)F)c(CS(=O)(=O)c2ccc(Cl)c[n+]2[O-])c1OCC(F)(F)F [Compound 73] | 0 | 10 | 0 | 20 | 70 | 90 | 90 | 100 | 70 | 95 | 60 | 100 | 0 | 65 | 0 | 50 | 0 | 60 | – | – | –
3 | Cn1nc(C(F)(F)F)c(CS(=O)(=O)c2ccc(Cl)c[n+]2[O-])c1OC(F)F [Compound 7] | – | – | – | – | – | 70 | 90 | 90 | – | – | – | – | – | – | – | 20 | – | 30 | 30 | 0 | Wheat plant response rating (wheat; [8]): 10; Plant response rating (0 to 100), Wheat (wheat; Preemergence, 250 g ai/ha): 30; Wheat plant response rating (wheat; [9]): 20; Ragweed plant response rating (common ragweed; 31 g ai/ha, Preemergence, scale 0 to 100): 0; Ragweed plant response rating (common ragweed; [8]): 80; Plant response rating (0 to 100), Ragweed (common ragweed; Preemergence, 250 g ai/ha): 100; Ragweed plant response rating (common ragweed; [9]): 100; Plant response rating, Barnyardgrass (barnyardgrass; [12]): 0; Plant response rating, Barnyardgrass (barnyardgrass; [13]): 0; Plant response rating, Barnyardgrass (barnyardgrass; [14]): 20; Velvetleaf plant response rating (velvetleaf; [10]): 0
4 | Cn1nc(C(F)(F)F)c(C[S+]([O-])c2ccc(Cl)c[n+]2[O-])c1Cl (racemic) [Compound 17] | 30 | – | 10 | – | – | 90 | 100 | 100 | 75 | – | 10 | – | – | – | – | 80 | 60 | 100 | 80 | 20 | Plant response rating, Barnyardgrass (barnyardgrass; [12]): 65; Plant response rating, Barnyardgrass (barnyardgrass; [13]): 85; Plant response rating, Barnyardgrass (barnyardgrass; [14]): 85; Velvetleaf plant response rating (velvetleaf; [10]): 50
